Experimental data: publication PMC6022226, “Novel coumarin-6-sulfonamides as apoptotic anti-proliferative agents: synthesis, in vitro biological evaluation, and QSAR studies” (Journal of Enzyme Inhibition and Medicinal Chemistry, 2018)
Where two headings read alike, the source gives them in different places.

Key:
[1] = system: non-tumorigenic human normal lung fibroblast cell line (WI-38); test: In vitro cytotoxicity towards normal WI-38 cells; format: cell-based
[2] = system: MCF-7 breast cancer; test: In vitro anti-proliferative activity, SRB assay, MCF-7; format: cell-based, human; conditions: mean ± SE of three experiments
Description: (§1) HepG2 liver cancer, MCF-7 breast cancer and Caco-2 cancer cell lines were obtained from the National Cancer Institute (Cairo, Egypt). Caco-2 cells were grown in DMEM while HepG2 and MCF-7 were grown in RPMI-1640. Media were supplemented with 10% heat-inactivated FBS, 50 units/mL of penicillin and 50 µg/mL of streptomycin and maintained at 37 °C in a humidified atmosphere containing 5% CO2. The cells were maintained as a “monolayer culture” by serial subculturing. Cytotoxicity was determined using the sulforhodamine B (SRB) method as previously described by Skehan et al.[50] Exponentially growing cells were collected using 0.25% trypsin-EDTA and seeded in 96-well plates at 1000–2000 cells/well in supplemented DMEM medium. After 24 h, cells were incubated for 72 h with various concentrations of the tested compounds as well as doxorubicin as the reference compound. Following 72 h of treatment, the cells were fixed with 10% trichloroacetic acid for 1 h at 4 °C. Wells were stained for 10 min at room temperature with 0.4% SRB dissolved in 1% acetic acid. The plates were air dried for 24 h, and the dye was solubilized with Tris–HCl for 5 min on a shaker at 1600 rpm. The optical density (OD) of each well was measured spectrophotometrically at 564 nm with an ELISA microplate reader (ChroMate-4300, FL, USA). The IC50 values were calculated according to the equation for Boltzmann sigmoidal concentrationeresponse curve using the nonlinear regression models (GraphPad, Prism Version 5). The results reported are means of at least three separate experiments. Significant differences were analyzed by one-way ANOVA wherein the differences were considered to be significant at p < .05.
(§2) All the newly synthesized target coumarin sulfonamides were evaluated for their in vitro anti-proliferative activity against three human tumor cancer cell lines, HepG2 hepatocellular carcinoma, MCF-7 breast cancer, and Caco-2 colon cancer, using SRB colorimetric assay as described by Skehan et al.^50 Doxorubicin was involved in the experiments as a reference cytotoxic compound.

[3] = system: Bax; test: ELISA immunoassay, Bax expression level in HepG2 cells; format: cell-based, human; conditions: HepG2 cells treated at IC50 concentration
From the text: (§3) The levels of the apoptotic markers (Bax, caspase-3) and the anti-apoptotic marker (Bcl-2) were examined using ELISA colorimetric kits per the manufacturer’s protocol and referring to reported instructions[51] ^, [52].
(§4) The Bcl-2 proteins family is mainly responsible for synchronizing the mitochondrial apoptotic pathway, and classified into two major classes: anti-apoptotic proteins such as Bcl-2 protein and the counteracting pro-apoptotic proteins including Bax protein. In this study, we examined the impact of coumarins 13a and 15a on the level of the anti-apoptotic Bcl2 and the level of the pro-apoptotic Bax (Table 3).

[4] = system: Bcl-2; test: ELISA immunoassay, Bcl-2 expression level in HepG2 cells; format: cell-based, human; conditions: HepG2 cells treated at IC50 concentration
From the text: as §3, §4

[5] = system: caspase-3; test: ELISA immunoassay, active caspase-3 level in HepG2 cells; format: cell-based, human; conditions: HepG2 cells treated at IC50 concentration
From the text: as §3
As a key executioner protease, caspase-3 is activated by upstream initiator caspases as caspase-9.

[6] = system: HepG2 hepatocellular carcinoma; test: In vitro anti-proliferative activity, SRB assay, HepG2; format: cell-based, human
Description: as §1, §2

[7] = system: Caco-2 colon cancer; test: In vitro anti-proliferative activity, SRB assay, Caco-2; format: cell-based, human
Description: as §1, §2

[8] = 72 h incubation, read-out: IC50 MCF7
[9] = 72 h incubation, SRB, mean ± SE of three experiments, read-out: IC50 HepG2
[10] = 72 h incubation, SRB, mean ± SE of three experiments, read-out: IC50 Caco-2
[11] = training set, Table 4, -log IC50 (IC50 in µM)
[12] = Homo sapiens, MCF7, 72 h incubation
[13] = Homo sapiens, HepG2, 72 h, 72 h incubation, SRB, mean ± SE of three experiments, read-out: IC50 HepG2
[14] = Homo sapiens, HepG2, training set, Table 4, -log IC50 (IC50 in µM), read-out: HepG2 Experimental activity (pIC50) (converted)
[15] = Homo sapiens, Caco-2, 72 h incubation, SRB, mean ± SE of three experiments, read-out: IC50 Caco-2
[16] = Homo sapiens, Caco-2, training set, Table 4, -log IC50 (IC50 in µM), read-out: Caco-2 Experimental activity (pIC50) (converted)
[17] = Homo sapiens, HepG2, external validation test compounds, Table 5, -log IC50 (IC50 in µM), read-out: HepG2 Experimental activity (pIC50) (converted)

Row | Molecule | IC50 [2, 12] | IC50 [6, 13] | IC50 [6, 14] | melting point | IC50 [7, 15] | IC50 [7, 16] | also measured
1 | 2-Oxo-N-(4–(1-(2–(5-oxo-4,5-dihydrothiazol-2-yl)hydrazono)ethyl)phenyl)-2H-chromene-6-sulfonamide [Compound 15a] |  |  |  |  |  |  | Selectivity index ([1]; WI-38 versus HepG2): 11; IC50 ([1]; normal lung fibroblasts): 55.92 ± 0.39 µM; IC50 [2, 8]: 11 ± 0.96 µM; Bax expression level [3]: 394.3 Pg/mg protein; Bax, folds of control [3]: 14.3 folds; Bcl-2, folds of control [4]: 0.39 folds; Bcl-2 expression level [4]: 2.73 ng/mg protein; Bcl-2 level, % of control [4]: 38.6%; Caspase-3 (active caspase-3 level) [5]: 0.2625 ng/mg protein; Caspase-3, folds of control [5]: ~5.7 folds; IC50 [6, 9]: 5.03 ± 0.39 µM; fold increased potency than doxorubicin ([6]; HepG2 IC50 ratio): 1.1 fold; HepG2 Experimental activity (pIC50) ([6]; external validation test compounds, Table 5, -log IC50 (IC50 in µM)): –0.7016; IC50 [7, 10]: 158 ± 9.39 µM; Caco-2 Experimental activity (pIC50) [7, 11]: −2.1997
2 | NS(=O)(=O)c1ccc(NS(=O)(=O)c2ccc3oc(=O)ccc3c2)cc1 [Compound 4a, 2-Oxo-N-(4-sulfamoylphenyl)-2H-chromene-6-sulfonamide] | 50.7 ± 4.61 µM | 35.5 ± 2.93 µM | 35.5 µM | 266 to 268 °C | 193 ± 15.3 µM | 193 µM | 
3 | O=c1ccc2cc(S(=O)(=O)Nc3ccc(S(=O)(=O)Nc4ccccn4)cc3)ccc2o1 [Compound 4b, 2-Oxo-N-(4-(N-(pyridin-2-yl)sulfamoyl)phenyl)-2H-chromene-6-sulfonamide] | 22.9 ± 2.04 µM | 8.08 ± 0.51 µM | 8.08 µM | 237 to 239 °C | 66.9 ± 6.07 µM | 66.9 µM | 
4 | CC(=O)c1ccc(NS(=O)(=O)c2ccc3oc(=O)ccc3c2)cc1 [Compound 6, N-(4-acetylphenyl)-2-oxo-2H-chromene-6-sulfonamide] | > 200 µM | 25.6 ± 1.36 µM |  |  | 81.5 ± 6.89 µM |  | IC50 [6, 17]: 25.6 µM; IC50 ([7]; Homo sapiens, Caco-2, external validation test compounds, Table 5, -log IC50 (IC50 in µM), read-out: Caco-2 Experimental activity (pIC50) (converted)): 81.5 µM
5 | CC(=NNc1ccccc1)c1ccc(NS(=O)(=O)c2ccc3oc(=O)ccc3c2)cc1 [Compound 8a, 2-Oxo-N-(4–(1-(2-phenylhydrazono)ethyl)phenyl)-2H-chromene-6-sulfonamide] | 14.3 ± 1.18 µM | 27 ± 2.01 µM | 27 µM | 178 to 180 °C | 8.53 ± 0.72 µM | 8.53 µM | 
6 | CC(=NNc1ccc([N+](=O)[O-])cc1[N+](=O)[O-])c1ccc(NS(=O)(=O)c2ccc3oc(=O)ccc3c2)cc1 [Compound 8b, N-(4–(1-(2–(2,4-dinitrophenyl)hydrazono)ethyl)phenyl)-2-oxo-2H-chromene-6-sulfonamide] | 126 ± 10.9 µM |  | 11.8 µM | 269 to 270 °C | 89.6 ± 7.26 µM | 89.6 µM | IC50 ([6]; Homo sapiens, HepG2, 72 h incubation, SRB, mean ± SE of three experiments, read-out: IC50 HepG2): 11.8 ± 1.34 µM
7 | CC(=NNc1c(Cl)cc(Cl)cc1Cl)c1ccc(NS(=O)(=O)c2ccc3oc(=O)ccc3c2)cc1 [Compound 8c, 2-Oxo-N-(4–(1-(2–(2,4,6-trichlorophenyl)hydrazono)ethyl)phenyl)-2H-chromene-6-sulfonamide] | > 200 µM | 29.8 ± 2.21 µM | 29.8 µM | 259 to 260 °C | 76.9 ± 6.59 µM | 76.9 µM | 
8 | CC(=NNS(=O)(=O)c1ccc(C)cc1)c1ccc(NS(=O)(=O)c2ccc3oc(=O)ccc3c2)cc1 [Compound 8d, 2-Oxo-N-(4–(1-(2-tosylhydrazono)ethyl)phenyl)-2H-chromene-6-sulfonamide] | > 200 µM | 89.9 ± 7.63 µM |  | 163 to 165 °C | 16 ± 1.32 µM | 16 µM | IC50 [6, 17]: 89.9 µM
9 | CC(=NNC(N)=S)c1ccc(NS(=O)(=O)c2ccc3oc(=O)ccc3c2)cc1 [Compound 9, 2–(1-(4–(2-Oxo-2H-chromene-6-sulfonamido)phenyl)ethylidene)hydrazine carbothioamide] | > 200 µM | 163 ± 10.2 µM | 163 µM | 253 to 254 °C | > 200 µM |  | 
10 | CC(=NNc1nc(C)cs1)c1ccc(NS(=O)(=O)c2ccc3oc(=O)ccc3c2)cc1 [Compound 11a, N-(4–(1-(2–(4-methylthiazol-2-yl)hydrazono)ethyl)phenyl)-2-oxo-2H-chromene-6-sulfonamide] | 13.9 ± 1.19 µM | > 200 µM |  | 257 to 259 °C | 10.1 ± 0.9 µM |  | 
11 | CCOC(=O)c1sc(NN=C(C)c2ccc(NS(=O)(=O)c3ccc4oc(=O)ccc4c3)cc2)nc1C [Compound 11b, Ethyl 4-methyl-2–(2-(1–(4-(2-oxo-2H-chromene-6-sulfonamido)phenyl)ethylidene)hydrazinyl)thiazole-5-carboxylate] | 63.4 ± 5.69 µM | 54.3 ± 3.87 µM | 54.3 µM | 180 to 182 °C | 145 ± 8.02 µM | 145 µM | 
12 | CC(=NNc1nc(C)c(N=Nc2ccc(Cl)cc2)s1)c1ccc(NS(=O)(=O)c2ccc3oc(=O)ccc3c2)cc1 [Compound 11c, N-(4–(1-(2–(5-((4-chlorophenyl)diazenyl)-4-methylthiazol-2-yl)hydrazono)ethyl)phenyl)-2-oxo-2H-chromene-6-sulfonamide] | 34.7 ± 2.94 µM | 72.5 ± 6.33 µM | 72.5 µM | 250 to 252 °C | 108 ± 11.4 µM | 108 µM | 
13 | CC(=NNc1nc(C)c(N=Nc2ccc(C)cc2)s1)c1ccc(NS(=O)(=O)c2ccc3oc(=O)ccc3c2)cc1 [Compound 11d, N-(4–(1-(2–(4-methyl-5-(p-tolyldiazenyl)thiazol-2yl)hydrazono)ethyl)phenyl)-2-oxo-2H-chromene-6-sulfonamide] | > 200 µM | > 200 µM |  | 258 to 259 °C | 16.1 ± 1.28 µM | 16.1 µM | 
14 | CC(=NNc1nc(-c2cc3ccccc3oc2=O)cs1)c1ccc(NS(=O)(=O)c2ccc3oc(=O)ccc3c2)cc1 [Compound 13b, 2-Oxo-N-(4–(1-(2–(4-(2-oxo-2H-chromen-3-yl)thiazol-2-yl)hydrazono)ethyl)phenyl)-2H-chromene-6-sulfonamide] | > 200 µM | 11.8 ± 1.16 µM | 11.8 µM | 201 to 202 °C | 96.6 ± 5.37 µM | 96.6 µM | 
15 | CC(=NNC1=NC(=O)C(CC(=O)O)S1)c1ccc(NS(=O)(=O)c2ccc3oc(=O)ccc3c2)cc1 (stereo not shown) [Compound 15c, 2–(4-Oxo-2–(2-(1–(4-(2-oxo-2H-chromene-6-sulfonamido)phenyl)ethylidene) hydrazinyl)-4,5-dihydrothiazol-5-yl)acetic acid] | 16.3 ± 1.48 µM | 7.57 ± 0.66 µM |  | 193 to 194 °C | 46.1 ± 3.17 µM | 46.1 µM | IC50 [6, 17]: 7.57 µM
16 | COc1cccc2c1C(=O)c1c(O)c3c(c(O)c1C2=O)C[C@@](O)(C(=O)CO)C[C@@H]3O[C@H]1C[C@H](N)[C@H](O)[C@H](C)O1 [Doxorubicin, reference compound] | 3.18 ± 0.32 µM | 6.9 ± 2.05 µM |  |  | 4.1 ± 1.37 µM |  | IC50 [6, 9]: 5.43 ± 0.24 µM
17 | N-(4–(1-(2–(4-methyl-5-oxo-4,5-dihydrothiazol-2-yl)hydrazono)ethyl)phenyl)-2-oxo-2H-chromene-6-sulfonamide [Compound 15b] |  |  |  |  |  |  | IC50 [2, 8]: 10.6 ± 1.35 µM; IC50 [6, 9]: 25.1 ± 2.08 µM; HepG2 Experimental activity (pIC50) [6, 11]: −1.3992; IC50 [7, 10]: 175 ± 12.3 µM; Caco-2 Experimental activity (pIC50) [7, 11]: −2.2428
